Assay results reported in patent publication US5739283A, “Prevention of invasive pulmonary aspergillosis with serine proteinase inhibitors” (The Ohio State Research Foundation, priority 1995, dated 1998).
Counter-ions that a name gives are not always drawn.

Tests used:
[1] = biological target: porcine pancreatic elastolytic serine protease (Sus scrofa, UniProt P00772); experiment: Residual serine protease activity after preincubation with serine protease inhibitors; format: biochemical; details: for Reduction of the activity of porcine serine protease (in words): summary of Table 3
porcine pancreatic elastolytic serine protease, sequence (P00772 27-266): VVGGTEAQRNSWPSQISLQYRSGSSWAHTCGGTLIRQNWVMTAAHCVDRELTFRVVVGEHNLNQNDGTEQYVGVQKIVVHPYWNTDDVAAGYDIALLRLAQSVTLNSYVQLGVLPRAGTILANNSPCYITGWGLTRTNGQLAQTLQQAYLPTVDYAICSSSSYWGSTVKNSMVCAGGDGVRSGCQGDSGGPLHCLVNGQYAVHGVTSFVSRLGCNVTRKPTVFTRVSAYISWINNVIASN
Experimental: (§1) Reaction mixtures for each protease were prepared by adding the protease to 0.1M Hepes, pH 7.5. The experimental samples were then preincubated for 30 minutes at 22° C. with 1 mM of the inhibitors. At the end of the 30 minute pre-incubation, the chromogenic substrate Suc-Ala-Ala-Pro-Leu-p-Na at a final concentration of 1 mM was added to each sample. The enzyme activity in the samples was monitored by measuring the release of pNA from the chromogenic substrate at 22° C. during a 10 minute reaction time. The enzyme activity in each experimental sample as a percentage of the enzyme activity in the control sample which was taken to be 100% was then determined.

[2] = biological target: T1, A. flavus Serine Protease (Aspergillus flavus, UniProt P35211); experiment: as above; format: biochemical; details: for Prevention of hydrolysis of Suc-Ala-Ala-Pro-Leu-pNA by A. flavus serine protease (in words): summary of Table 3
T1 construct: The extracellular serine proteases of A. fumigatus and A. flavus were purified from 5 day cultures; endogenous in cells; host or cells: Aspergillus flavus 5-day culture, extracellular fluid, bacitracin-Sepharose 4B
T1 sequence (P35211 122-403): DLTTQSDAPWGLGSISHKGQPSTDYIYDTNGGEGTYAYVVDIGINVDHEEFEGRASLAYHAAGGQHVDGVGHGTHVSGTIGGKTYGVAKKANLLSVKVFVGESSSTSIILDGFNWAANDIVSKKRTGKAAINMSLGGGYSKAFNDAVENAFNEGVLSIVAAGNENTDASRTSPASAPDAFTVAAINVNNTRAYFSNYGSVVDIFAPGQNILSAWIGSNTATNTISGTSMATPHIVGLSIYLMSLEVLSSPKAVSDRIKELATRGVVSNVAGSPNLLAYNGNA
Source text: (§2) The serine protease inhibitors 4-carboxamido-substituted cephem (L-658,758), (S-(R*,S*))-4-((3,3-diethyl-1-((1-(4-methyl-phenyl)butylamino)carbonyl)-4-oxo-2-azetidinyl)oxy)-benzeneacetic acid 2-amino-2-methyl-1-propanol salt (L-680, 833) are known to irreversibly bind to the active site of the elastolytic serine protease obtained from neutrophils. It is also known that the serine protease inhibitor PMSF irreversibly binds to the active site of all serine proteases. The ability of the serine protease inhibitors L-658,758 and L-680,833, both of which were obtained from Merck Chemical Company, Rahway, N.J., and PMSF to block the proteolytic activity of the elastolytic serine proteases from Aspergillus fumigatus and Aspergillus flavus were tested as follows.
as §1

[3] = biological target: T2, A. fumigatus Serine Protease (Aspergillus fumigatus, UniProt P28296); experiment: as above; format: biochemical; details: for Serine protease (SP) activity (%), A. fumigatus Serine Protease: inhibitor 1 mM, pH 7.5, 30 min preincubation at 22° C., control = 100%; for Prevention of hydrolysis of Suc-Ala-Ala-Pro-Leu-pNA by A. fumigatus serine protease (in words): summary of Table 3
T2 construct: The extracellular serine proteases of A. fumigatus and A. flavus were purified from 5 day cultures; endogenous in cells; host or cells: Aspergillus fumigatus 5-day culture, extracellular fluid, bacitracin-Sepharose 4B
T2 sequence (P28296 122-403): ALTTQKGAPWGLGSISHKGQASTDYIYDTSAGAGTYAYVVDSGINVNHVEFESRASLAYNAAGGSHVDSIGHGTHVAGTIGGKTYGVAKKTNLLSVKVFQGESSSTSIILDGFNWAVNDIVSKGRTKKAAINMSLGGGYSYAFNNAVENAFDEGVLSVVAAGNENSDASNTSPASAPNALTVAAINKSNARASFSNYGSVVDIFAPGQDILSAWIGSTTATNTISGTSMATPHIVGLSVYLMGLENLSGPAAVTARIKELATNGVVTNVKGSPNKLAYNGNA
Source text: as §2, §1

[4] = statement without test; cited from earlier work
[5] = background statement; cited from earlier work
[6] = tested on: CC(C)C[C@H](NC(=O)[C@@H]1CCCN1C(=O)[C@H](C)NC(=O)[C@H](C)NC(=O)CCC(=O)O)C(=O)Nc1ccc([N+](=O)[O-])cc1; experiment: purified protein, by the assay type; details: other: 22° C., pH 8.0, Lineweaver-Burk plot
Experimental: (§3) First the Km values of the elastolytic serine proteases from A. fumigatus and A. flavus were calculated. […] The Km of the elastolytic serine proteases from A. fumigatus and A. flavus were determined using the synthetic chromogenic molecule Suc-Ala-Ala-Pro-Leu-pNa as a substrate. Reaction mixtures were prepared containing 5 μm of various concentrations of the chromogenic substrate dissolved in dimethyl sulfoxide, 990 μm of 0.1M Tris-HCl, buffer pH 8.0, and 5 μm of the aspergillus protease (0.65 mg/ml). The release of pNa from the substrate and the subsequent increase in absorbance of the reaction mixture at 410 nm was monitored at 22° C. for 10 minutes using a Hewlett Packard 8451A diode array spectrophotometer. The initial rates of the enzymatic reaction at 22° C. were then determined for each concentration of substrate and the reciprocals plotted on a Lineweaver-Burk plot.
(§4) Next the ability of the reversible subtilisin-type inhibitors Barley ASI, purified SSI, and recombinant SSI and of the reversible chymotrypsin-type inhibitors Eglin C, potato protease I1, and potato protease I2 to block hydrolysis of the synthetic chromogenic substrate by the aspergillus elastolytic serine proteases was evaluated. Various concentrations of each inhibitor were pre-incubated for 5 minutes in samples containing the buffer and protease. […]

[7] = Toxicity of the composition in irradiated, uninoculated mice; format: in vivo, Balb/c mice; details: Experiment 1, seven 10 μl treatments of the 50 mg/ml composition over 48 hours
Experimental: Tests were conducted to assess the effect of treatment with the pharmaceutical compositions of the present invention on the pathogenesis of invasive pulmonary aspergillosis in immunocompromised animals. To prevent secondary bacterial or viral infections in the treated and control animals, pathogen-free eight-week old female Balb/c mice were housed in a Bioclean laminar flow hood and provided with oxytetracylcine (100 mg/l)-neomycin sulfate (10 mg/l), pH 2.5, from 7 days prior to irradiation until the end of each experiment. Following seven days of treatment with the antibiotics, one group of animals was made immunodeficient by exposure to 400 rads of gamma radiation from a Cesium 137 source.
To test the toxicity of the pharmaceutical composition of example 1, a second group of irradiated mice, inoculated with 30 ul of Tween alone were treated with a […] the pharmaceutical composition from example 1 according to the same schedule for a total of seven treatments.
Twenty-five, irradiated, uninoculated animals were also treated with […] of the pharmaceutical composition of example 4 according to the same schedule to assess the toxicity of the composition containing potato protease inhibitor in immunocompromised animals. The effect of treatment with the pharmaceutical composition of example 4 on the survival of uninoculated and aspergillus-inoculated animals is shown in Table 7.

[8] = biological target: A. fumigatus elastolytic serine protease (Aspergillus fumigatus, UniProt P28296); experiment: Inhibition constants (Ki) of reversible inhibitors for A. fumigatus elastolytic serine protease, chromogenic substrate; details: summary of Table 2
A. fumigatus elastolytic serine protease, sequence (P28296 122-403): as above
Experimental: as §3, §4

[9] = inhibitor 1 mM, pH 7.5, 30 min preincubation at 22° C., control = 100%

With `CO[C@H]1C(=O)N2C(C(=O)N3CCC[C@H]3C(=O)O)=C(COC(C)=O)CS(=O)(=O)[C@H]12` [L658,758, 4-carboxamido-substituted cephem] the “Serine protease (SP) activity (%), Porcine pancreas Serine Protease” value [1, 9] was 6.6%, the “Reduction of the activity of porcine serine protease (in words)” value (shortened to “Reduction”) [1] was “effective at reducing the activity” and the “Serine protease (SP) activity (%), A. flavus Serine Protease” value [2, 9] was 91%. For the same molecule, the “Prevention of hydrolysis of Suc-Ala-Ala-Pro-Leu-pNA by A. flavus serine protease (in words)” value [2] was “ineffective”, the “Serine protease (SP) activity (%), A. fumigatus Serine Protease” value [3] was 93% and the “Prevention of hydrolysis of Suc-Ala-Ala-Pro-Leu-pNA by A. fumigatus serine protease (in words)” value [3] was “ineffective”.

For `CCC[C@@H](NC(=O)N1C(=O)C(CC)(CC)[C@@H]1Oc1ccc(CC(=O)O)cc1)c1ccc(C)cc1` [L680,833, (S-(R*,S*))-4-((3,3-diethyl-1-((1-(4-methyl-phenyl)butylamino)carbonyl)-4-oxo-2-azetidinyl)oxy)-benzeneacetic acid 2-amino-2-methyl-1-propanol salt], the activity at 1000 µM ([1]; inhibitor 1 mM, pH 7.5, 30 min preincubation at 22° C., control = 100%, read-out: Serine protease (SP) activity (%), Porcine pancreas Serine Protease) was 12%, the “Reduction” value [1] was “effective at reducing the activity” and the activity at 1000 µM ([2]; inhibitor 1 mM, pH 7.5, 30 min preincubation at 22° C., control = 100%, read-out: Serine protease (SP) activity (%), A. flavus Serine Protease) was 89%. For the same molecule, the “Prevention of hydrolysis of Suc-Ala-Ala-Pro-Leu-pNA by A. flavus serine protease (in words)” value [2] was “ineffective”, the activity at 1000 µM ([3]; pH 7.5, read-out: Serine protease (SP) activity (%), A. fumigatus Serine Protease) was 93% and the “Prevention of hydrolysis of Suc-Ala-Ala-Pro-Leu-pNA by A. fumigatus serine protease (in words)” value [3] was “ineffective”.

For `O=S(=O)(F)Cc1ccccc1` [PMSF], the “Toxicity (in words)” value [4] is listed as “highly toxic”, the “Serine protease (SP) activity (%), Porcine pancreas Serine Protease” value [1, 9] is listed as 0% and the “Reduction” value [1] is listed as “reduced the enzymatic activity”. For the same molecule, the “Serine protease (SP) activity (%), A. flavus Serine Protease” value [2, 9] was 0%, the “Prevention of hydrolysis of Suc-Ala-Ala-Pro-Leu-pNA by A. flavus serine protease (in words)” value [2] was “reduced the enzymatic activity” and the “Serine protease (SP) activity (%), A. fumigatus Serine Protease” value [3] was 0.89%. For the same molecule, the “Prevention of hydrolysis of Suc-Ala-Ala-Pro-Leu-pNA by A. fumigatus serine protease (in words)” value [3] was “reduced the enzymatic activity”.

For `C[C@@H]1[C@H](O)[C@@H](C)/C=C/C=C/C=C/C=C/C=C/C=C/C=C/[C@H](O[C@@H]2O[C@H](C)[C@@H](O)[C@H](N)[C@@H]2O)C[C@@H]2O[C@](O)(C[C@@H](O)C[C@@H](O)[C@H](O)CC[C@@H](O)C[C@@H](O)CC(=O)O[C@H]1C)C[C@H](O)[C@H]2C(=O)O` [amphotericin B], the Nephrotoxicity [5] is listed as “serious side effect”.

In the case of “A. flavus elastolytic serine protease (Aspergillus flavus)”, the Km [6] is reported as 570 µM.

Work on “A. fumigatus elastolytic serine protease (Aspergillus fumigatus Af293)” yielded a Km [6] of 350 µM.

B1: SSI: protein produced and secreted by streptomyces, purified from Streptomyces albogriseolus strains (protein, UniProt P01006 32-144, looked up)
Subtilisin inhibitor: DAPSALYAPSALVLTVGKGVSATTAAPERAVTLTCAPGPSGTHPAAGSACADLAAVGGDLNALTRGEDVMCPMVYDPVLLTVDGVWQGKRVSYERVFSNECEMNAHGSSVFAF
With B1 the “Mortality of treated, uninoculated, immunocompromised animals” value [7] was “no mortality” and the “Inhibition of the elastolytic serine protease from A. fumigatus (in words)” value [8] was “greatest inhibitory effect”.
